Source: patent US5147875A, “2-(substituted phenyl)-4-oxo-quinazolines” (Sanshin Kogyo Kabishiki Kaisha, priority 1988, dated 1992)

test system: U46619-induced broncho-constriction; experiment: Bronchodilatation in vivo: U46619-induced bronchoconstriction in anaesthetised guinea-pigs; parameters: species or system guinea-pig; settings: 10 μmol/kg i.v. bolus; anaesthetised male Dunkin Hartley guinea-pigs; U46619 infused i.v. 2.5 nmol/min
Procedure: Male guinea-pigs of the Dunkin Hartley strain (500-600 g) were anaesthetised with Sagatal (pentobarbital sodium) (60 mg/kg). Airway resistance was measured using a modification of the classical Konzett-Rossler technique (Versuchsanordnung zu Untersuchungen an der Bronchialmuskulatur. Naunyn-Schmiedebergs Arch. Exp. Path. Pharmak., vol 195: pp 71-74, (1940)). U46619 (9,11-methanoepoxy-PGH2) was infused i.v. at a rate of 2.5 nmol/min, this produced a steady state of broncho-constriction (approximately 120% increase from basal airway resistance). The compound under test was administered by i.v. bolus injection, and the subsequent peak inhibition of bronchoconstriction recorded.
Administration of the compound of Example 1 (10 μmol/kg) reduced the U46619-induced broncho-constriction by 34%.

Row | SMILES | reduction of U46619-induced broncho-constriction (peak inhibition) [%]
1 | CCCOc1ccccc1-c1nc2ccccc2c(=O)[nH]1 [Example 1, 2-(2-Propoxyphenyl)quinazolin-4(3H)-one] | 34

molecular target: calmodulin insensitive cyclic GMP phosphodiesterase; experiment: Phosphodiesterase activity: inhibition of calmodulin insensitive cyclic GMP phosphodiesterase; type: biochemical; settings: procedure of European Patent Application No. 293063; read-out: IC50 (concentration of inhibitor required for 50% inhibition of enzyme activity)
Procedure: The activity of the compounds of the present invention as inhibitors of a calmodulin insensitive cyclic GMP phosphodiesterase was measured using the procedure described in European Patent Application No. 293063. […] The compounds of the present invention have the advantage that they are selective in not inhibiting cyclic AMP phosphodiesterase (type III).

Row | SMILES | IC50 [µM]
2 | CCCOc1ccccc1-c1nc2ccccc2c(=O)[nH]1 [Example 1, 2-(2-Propoxyphenyl)quinazolin-4(3H)-one] | 0.71 to 5.3
3 | CCCOc1ccccc1-c1nc2cc(SC)ccc2c(=O)[nH]1 [Example 2, 7-Methylthio-2-(2-propoxyphenyl)quinazolin-4(3H)-one] | 0.71 to 5.3
4 | CCCOc1ccccc1-c1nc2cc(NC)ccc2c(=O)[nH]1 [Example 5, 7-Methylamino-2-(2-Propoxyphenyl)-4(3H)-quinazolinone] | 0.71 to 5.3
5 | CCCOc1ccccc1-c1nc2cc([N+](=O)[O-])ccc2c(=O)[nH]1 [Example 3, 7-Nitro-2-(2-Propoxyphenyl)-4(3H)-quinazolinone] | 0.71 to 5.3
6 | CCCOc1ccccc1-c1nc2cc(N)ccc2c(=O)[nH]1 [Example 4, 7-Amino-2-(2-Propoxyphenyl)-4(3H)-quinazolinone] | 0.71 to 5.3
